# What was measured:
# [1] = Clinical trial: pharmacokinetics in patients; type: in vivo, human; settings: 2-hr i.v. infusion days 1 and 8 every 3 weeks
# Experimental: (§1) Sequential cohorts of 3-6 patients with advanced or metastatic solid malignancies received a 2-hr infusion of volasertib on days 1 and 8 every 3 weeks in a toxicity guided dose escalation study. There were 4 prespecified doses (50-200 mg).
# (§2) 27 Asian patients with advanced solid malignancies were treated. […] MTD was 150 mg for above described schedule. The median number of initiated courses was 3 over all dose groups (range 1-21). […] Two patients with bladder cancer and melanoma, respectively had partial responses.
# [2] = tested on: advanced or metastatic solid malignancies; experiment: Clinical trial: toxicity guided dose escalation study, 2-hr infusion on days 1 and 8 every 3 weeks; type: in vivo
# Experimental: as §1, §2
# [3] = administered at two days during a 21 day treatment cycle
smiles,measurement,setting,value
"CC[C@@H]1C(=O)N(C)c2cnc(Nc3ccc(C(=O)N[C@H]4CC[C@H](N5CCN(CC6CC6)CC5)CC4)cc3OC)nc2N1C(C)C [Volasertib, N-[trans-4-[4-(cyclopropylmethyl)-1-piperazinyl]cyclohexyl]-4-[[(7R)-7-ethyl-5,6,7,8-tetrahydro-5-methyl-8-(1-methylethyl)-6-oxo-2-pteridinyl]amino]-3-methoxy-benzamide]",PK behavior,[1],multi-compartmental
same,clearance,"[1]; human, in vivo, iv",807 mL/min
same,half-life,"[1]; human, in vivo, iv, read-out: mean terminal elimination half-life (converted)",4.46 days
same,Vd,"[1]; human, in vivo, iv, read-out: volume of distribution",4500 L
same,MTD,[2]; 2-hr infusion on days 1 and 8 of 21 day cycle,150 mg
same,"patients with partial responses (bladder cancer and melanoma, respectively)","[2]; 27 patients treated, days 1 and 8 every 3 weeks",Two
same,patients achieved partial response (preliminary anti-tumor activity),[2]; [3],1 patient
same,patients achieved stable disease,[2]; [3],10 patients
same,dose limiting toxicities (DLTs),"[2]; human, in vivo","reversible thrombocytopenia, neutropenia and febrile neutropenia"

# — patent US20130131069A1, “METHOD FOR TREATMENT OF SOLID MALIGNANCIES INCLUDING ADVANCED OR METASTATIC SOLID MALIGNANCIES” (Boehringer Ingelheim International GmbH, priority 2011, published 2013)
